Experimental data reported in patent US7326422B2, “Dissolvable oxides for biological applications” (DelSiTech Oy, priority 1996, dated 2008).
Where a name gives a salt, the structure may show the parent alone.

Experiments:
[1] = In vitro dissolution test, USP XXII dissolution apparatus II (paddle method), SBF pH 7.4 with 0.5% sodium dodecyl sulphate, 37° C.; assay type: physicochemical; conditions: for Dissolution of toremifene citrate: b: silica xerogel with PEG 4,600; for Release of toremifene citrate: SLOPE: silica xerogel; for release of toremifene citrate: linear, zero-order
Description: Simulated body fluid (SBF, pH 7.4) containing 0.5% […] sodium dodecyl sulphate was used as dissolution medium. SBF was prepared by dissolving reagent grade NaCl (136.8 mM), NaHCO3 (4.2 mM), KCl (3.0 mM), K2HPO4×3H2O (1.0 mM), MgCl2×6H2O (1.5 mM), CaCl2×2H2O […] and Na2SO4 (0.5 mM) in distilled water. They were buffered at pH 7.4 with tris-(hydroxymethyl)aminomethane (50 mM) and hydrochloric acid.
The volume of dissolution medium was 250 ml. Agitation intensity was 50 rpm and temperature was 37° C. […]

[2] = Dissolution of spray dried or crushed gel particles in 250 ml SBF, USP XXII dissolution apparatus II (paddle method); assay type: physicochemical; conditions: for toremifene citrate released: after 30 hours; for slope (%/h^1/2): microspheres with 11 w-% toremifene citrate
Description: The solution for spray drying purpose was prepared with a mole ratio of TEOS:H2O:HCl=1.0:14.2:0.003. […] Before spray drying the pH of the sol was adjusted to pH 2.1 with hydrochloric acid. Silica sol was spray dried immediately or after 65 hours aging at room temperature. The spray drying conditions were as described in Example 6. […] About 42 mg of gel particles were placed in 250 ml of simulated body fluid (SBF) at 37° C. and pH 7.4.

[3] = during the first day; crushed silica xerogel particles of 500-700 μm; cited from earlier work

SMILES: CN(C)CCOc1ccc(/C(=C(/CCCl)c2ccccc2)c2ccccc2)cc1 [toremifene citrate]
- release faster from 28 days aged silica xerogels than from unaged ([1]; silica xerogel monolith with PEG 4,600): about 30%
- Dissolution of toremifene citrate: b ([1]; aging 0 days, dried at 11.4 RH-%): b = 0.46%/mg %/mg implant/h^1/2
- Dissolution of toremifene citrate: b ([1]; aging 0 days, dried at 48.4 RH-%): b = 0.53 %/mg implant/h^1/2
- Dissolution of toremifene citrate: b ([1]; aging 0 days, dried at 74.7 RH-%): b = 0.46 %/mg implant/h^1/2
- Dissolution of toremifene citrate: b ([1]; aging 7 days, dried at 11.4 RH-%): b = 0.59 %/mg implant/h^1/2
- Dissolution of toremifene citrate: b ([1]; aging 7 days, dried at 48.4 RH-%): b = 0.52 %/mg implant/h^1/2
- Dissolution of toremifene citrate: b ([1]; aging 7 days, dried at 74.7 RH-%): b = 0.06%/mg %/mg implant/h
- Dissolution of toremifene citrate: b ([1]; aging 28 days, dried at 11.4 RH-%): b = 0.67 %/mg implant/h^1/2
- Dissolution of toremifene citrate: b ([1]; aging 28 days, dried at 48.4 RH-%): b = 0.74 %/mg implant/h^1/2
- Release of toremifene citrate: SLOPE ([1]; H2O/TEOS = 6:1, PEG 4600): 0.094%/ %/mg × h
- Release of toremifene citrate: SLOPE ([1]; H2O/TEOS = 6:1, PEG 10000): 0.922%/mg %/mg IMPLANT × h^1/2
- Release of toremifene citrate: SLOPE ([1]; H2O/TEOS = 6:1, without PEG): 0.657%/mg %/mg IMPLANT × h^1/2
- Release of toremifene citrate: SLOPE ([1]; H2O/TEOS = 14:1, PEG 4600): 0.052 %/mg IMPLANT × h
- Release of toremifene citrate: SLOPE ([1]; H2O/TEOS = 14:1, PEG 10000): 0.061 %/mg IMPLANT × h
- Release of toremifene citrate: SLOPE ([1]; H2O/TEOS = 14:1, without PEG): 0.085 %/mg IMPLANT × h
- release rate (linear) ([1]; silica xerogels containing PEG 10 000): 0.1 %/mg implant/h
- release rate (linear) ([1]; silica xerogels containing PEG 4600): 0.13 %/mg implant/h
- release rate (linear) ([1]; silica-xerogels without polyethylene glycol): 0.16 %/mg implant/h
- release of toremifene citrate ([1]; sintered silica gel (120° C.) containing 11.5 wt-% drug): 0.05 %/mg implant/h
- release of toremifene citrate ([1]; sintered silica gel (120° C.) containing 34.4 wt-% drug): 0.11 %/mg implant/h
- release rate (linear) ([1]; spray dried particles (60-200 μm) containing 10.2 w-% toremifene citrate, two months from preparation): 0.68 w-% per hour
- toremifene citrate released ([2]; microspheres (<50 μm) spray dried at pH 3.8, square root of time kinetics): 80 w-%
- toremifene citrate released ([2]; microspheres from sol aged 65 hours, pH 2): 63.1 w-%
- toremifene citrate released ([2]; microspheres from unaged sol, pH 2): 75.2 w-%
- dissolution rate (square root of time kinetics) ([2]; crushed silica xerogel granules about 4-50 μm, PEG 4.600): 8.1 %/h^1/2
- cum released toremifene (%) after 30 h ([2]; microspheres aged for 0 h (pH 2)): 75.2%
- cum released toremifene (%) after 30 h ([2]; microspheres aged for 65 h (pH 2)): 63.1%
- slope (%/h^1/2) ([2]; aged for 0 h (pH 2)): 12.2 %/h^1/2
- slope (%/h^1/2) ([2]; aged for 65 h (pH 2)): 9.79 %/h^1/2
- release slower from aged than from unaged microspheres ([2]; sol aged 65 h vs 0 h, pH 2): about 20%

SMILES: CN[C@H](CC(C)C)C(=O)N[C@H]1C(=O)N[C@@H](CC(N)=O)C(=O)N[C@H]2C(=O)N[C@H]3C(=O)N[C@H](C(=O)N[C@H](C(=O)O)c4cc(O)cc(O)c4-c4cc3ccc4O)[C@H](O)c3ccc(c(Cl)c3)Oc3cc2cc(c3O[C@@H]2O[C@H](CO)[C@@H](O)[C@H](O)[C@H]2O[C@H]2C[C@](C)(N)[C@H](O)[C@H](C)O2)Oc2ccc(cc2Cl)[C@H]1O [vancomycin]
- incorporated vancomycin released [3]: about 90%
